The results in this text go back to ChEMBL document CHEMBL5042504 (J Med Chem, 2022).

Data set [1] in a line: Half life in CD-1 mouse at 20 mg/kg, po measured upto 24 hrs. The data set is classed as ADME, organism-based. As to conditions: in vivo.
The nature of data set [2]: Cmax in CD-1 mouse at 20 mg/kg, po measured upto 24 hrs. The data set is classed as ADME, organism-based. Set-up: route oral, dose 20 mg/kg, time <=24. The settings on record: CD-1, mouse, in vivo, read-out: Cmax.

In data set [1], `CCCNNC(=O)c1ccc(CNC(=O)c2cc3ccccc3[nH]2)cc1` had a half-life of 2.58 h. Also, the Cmax in data set [2] was found to be 38800 ng/mL.

As a reminder, the half-life is how long it takes for the measured level to halve. Higher therefore signals slow decline. By Cmax is commonly meant the highest concentration seen after dosing.
